According to ChEMBL document CHEMBL5036336, “Structure-Guided Optimization Provides a Series of TTK Protein Inhibitors with Potent Antitumor Activity” (J Med Chem, 2021):
≈ marks a conversion by molar mass, not a printed value.

Legend:
CAL-51 = assay: Antiproliferative activity against human CAL-51 cells assessed as inhibition of cell proliferation measured after 3 days by Cell Titer-Glo luminescence based assay; type: functional; conditions: CAL-51, 72 h
[1] = Clearance in rat at 2 mg/kg, iv; type: ADME, organism-based; conditions: in vivo
[2] = target: T1, Dual specificity protein kinase TTK (Homo sapiens, UniProt P33981); assay: Displacement of kinase tracer 236 from TTK (unknown origin) by LanthaScreen Eu kinase binding assay
T1 sequence (P33981 whole entry): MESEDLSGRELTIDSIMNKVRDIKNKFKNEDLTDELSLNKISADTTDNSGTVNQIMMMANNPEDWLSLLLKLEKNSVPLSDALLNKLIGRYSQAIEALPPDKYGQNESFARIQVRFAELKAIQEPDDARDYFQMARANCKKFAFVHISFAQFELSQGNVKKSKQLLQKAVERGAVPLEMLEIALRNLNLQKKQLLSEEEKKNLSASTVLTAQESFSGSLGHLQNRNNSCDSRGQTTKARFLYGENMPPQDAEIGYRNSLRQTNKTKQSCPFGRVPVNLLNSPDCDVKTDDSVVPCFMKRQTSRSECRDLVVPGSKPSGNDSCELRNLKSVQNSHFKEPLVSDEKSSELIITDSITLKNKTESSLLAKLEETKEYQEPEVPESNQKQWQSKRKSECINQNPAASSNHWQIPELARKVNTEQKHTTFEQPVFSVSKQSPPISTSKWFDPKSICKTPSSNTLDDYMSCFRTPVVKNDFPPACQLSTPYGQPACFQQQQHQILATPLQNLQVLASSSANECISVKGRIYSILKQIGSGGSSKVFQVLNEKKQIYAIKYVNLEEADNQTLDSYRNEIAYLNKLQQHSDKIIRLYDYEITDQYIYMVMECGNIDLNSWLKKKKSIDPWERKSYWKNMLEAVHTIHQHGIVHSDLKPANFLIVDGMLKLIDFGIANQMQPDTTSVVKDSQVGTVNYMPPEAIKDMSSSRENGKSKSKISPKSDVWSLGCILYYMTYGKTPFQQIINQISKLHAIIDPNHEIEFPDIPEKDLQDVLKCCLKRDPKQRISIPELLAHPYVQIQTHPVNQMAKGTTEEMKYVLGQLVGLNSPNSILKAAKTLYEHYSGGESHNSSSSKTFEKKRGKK

[3] = Kinetic solubility of compound in PBS at pH 7.4 at 200 uM incubated for 24 hrs by UPLC/MS analysis; type: physicochemical; conditions: read-out: Kinetic_solubility
Cytochrome P450 3A4 = Cytochrome P450 3A4 (Homo sapiens, UniProt P08684); assay: Inhibition of CYP3A4 in human liver microsomes using […] as substrate incubated for 5 mins in presence of NADPH by LC-MS/MS analysis; type: ADME
Cytochrome P450 3A4, sequence (P08684 whole entry): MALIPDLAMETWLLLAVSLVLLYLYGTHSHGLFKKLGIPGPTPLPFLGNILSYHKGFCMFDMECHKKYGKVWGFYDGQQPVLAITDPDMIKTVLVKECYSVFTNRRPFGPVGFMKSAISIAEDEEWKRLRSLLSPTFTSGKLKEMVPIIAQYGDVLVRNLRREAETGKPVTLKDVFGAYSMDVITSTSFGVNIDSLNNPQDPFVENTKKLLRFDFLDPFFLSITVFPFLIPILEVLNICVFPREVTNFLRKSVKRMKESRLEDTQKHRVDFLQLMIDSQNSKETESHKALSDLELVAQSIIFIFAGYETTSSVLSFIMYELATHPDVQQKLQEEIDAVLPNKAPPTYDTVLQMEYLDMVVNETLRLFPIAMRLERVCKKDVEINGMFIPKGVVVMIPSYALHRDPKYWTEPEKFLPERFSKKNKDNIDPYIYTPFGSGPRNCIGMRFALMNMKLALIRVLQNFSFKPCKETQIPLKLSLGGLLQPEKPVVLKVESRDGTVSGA

SMILES	IC50 (CAL-51)	clearance [1]	IC50 [2]	solubility kinetic at 24 h, 200 µM [3]	IC50 (Cytochrome P450 3A4)
CCc1cccc(CC)c1NC(=O)c1ccn(-c2nc(Nc3ccc(N4CCC(N5CCN(C)CC5)CC4)cc3OC)nc3[nH]ccc23)c1	6 nM	68 mL/min/kg	2 nM	53 µM (≈ 35.1 µg/mL)	2 µM
CCc1cccc(CC)c1NC(=O)c1cc(-c2nc(Nc3ccc(N4CCC(O)(C(=O)N5CCN(C)CC5)CC4)cc3OC)nc3[nH]ccc23)n(C)n1	20 nM	31 mL/min/kg	3 nM	5 µM (≈ 3.6 µg/mL)	> 5 µM
CCc1cccc(CC)c1NC(=O)c1ccn(-c2nc(Nc3ccc(N4CCC(C(=O)N5CCN(C)CC5)CC4)cc3OC)nc3[nH]ccc23)c1	10 nM	22 mL/min/kg	2 nM	–	3.1 µM
CCc1cccc(CC)c1N1CCn2cc(-c3nc(Nc4ccc(N5CCN(CC(=O)N(C)C)CC5)cc4OC)nc4[nH]ccc34)cc2C1=O	11 nM	23 mL/min/kg	9 nM	1.4 µM (≈ 0.946 µg/mL)	–
CCc1cccc(CC)c1N1CCn2cc(-c3nc(Nc4ccc(N5CCC(N6CCN(C)CC6)CC5)cc4OC)nc4[nH]ccc34)cc2C1=O	9 nM	52 mL/min/kg	4 nM	6 µM (≈ 4.13 µg/mL)	> 5 µM
CCc1cccc(CC)c1NC(=O)c1ccn(-c2nc(Nc3ccc(N4CCN(CC(=O)N(C)C)CC4)cc3OC)nc3[nH]ccc23)c1	10 nM	–	1 nM	0.5 µM (≈ 0.325 µg/mL)	–
CCc1cccc(CC)c1NC(=O)c1ccn(-c2nc(Nc3ccc(N4CCC(O)(CN5CCN(C)CC5)CC4)cc3OC)nc3[nH]ccc23)c1	4 nM	–	1 nM	37 µM (≈ 25.6 µg/mL)	1.2 µM
COc1cc(N2CCN(C3COC3)CC2)ccc1Nc1nc(O[C@H]2CCOC(C)(C)C2)c2cc[nH]c2n1	–	–	–	–	> 5 µM
CNC(=O)c1ccc(Nc2nc(OC3CCCC3)c3c(-c4ccc5nc(C)oc5c4)c[nH]c3n2)c(OC)c1	–	–	–	–	0.28 µM
CCc1cccc(CC)c1NC(=O)c1cc(-c2nc(Nc3ccc(N4CCC(C(=O)N5CCN(C)CC5)CC4)cc3OC)nc3[nH]ccc23)n(C)n1	17 nM	19 mL/min/kg	4 nM	2 µM (≈ 1.41 µg/mL)	> 5 µM
CCc1cccc(CC)c1NC(=O)c1cc(-c2nc(Nc3ccc(N4CCN(CC(=O)N(C)C)CC4)cc3OC)nc3[nH]ccc23)n(C)n1	22 nM	20 mL/min/kg	3 nM	3 µM (≈ 1.99 µg/mL)	–
CCc1cccc(CC)c1N1CCn2cc(-c3nc(Nc4ccc(N5CCC(C(=O)N6CCN(C)CC6)CC5)cc4OC)nc4[nH]ccc34)cc2C1=O	5 nM	1.7 mL/min/kg	5.6 nM	0.8 µM (≈ 0.573 µg/mL)	> 5 µM
CCc1cccc(CC)c1NC(=O)c1cc(-c2nc(Nc3ccc(N4CCC(O)(CN5CCN(C)CC5)CC4)cc3OC)nc3[nH]ccc23)n(C)n1	19 nM	56 mL/min/kg	2 nM	162 µM (≈ 115 µg/mL)	> 5 µM
CCc1cccc(CC)c1N1CCn2cc(-c3nc(Nc4ccc(N5CCC(C(=O)N(C)CCN(C)C)CC5)cc4OC)nc4[nH]ccc34)cc2C1=O	7 nM	27 mL/min/kg	5.3 nM	125 µM (≈ 89.7 µg/mL)	3.9 µM
CCc1cccc(CC)c1N1CCn2cc(-c3nc(Nc4ccc(N5CCC(O)(CN6CCN(C)CC6)CC5)cc4OC)nc4[nH]ccc34)cc2C1=O	8 nM	15 mL/min/kg	2.8 nM	150 µM (≈ 108 µg/mL)	> 5 µM
CCc1cccc(CC)c1NC(=O)c1ccn(-c2nc(Nc3ccc(N4CCC(O)(C(=O)N5CCN(C)CC5)CC4)cc3OC)nc3[nH]ccc23)c1	10 nM	–	2 nM	1 µM (≈ 0.706 µg/mL)	1.9 µM
CCc1cccc(CC)c1N1CCn2cc(-c3nc(Nc4ccc(N5CCC(O)(C(=O)N6CCN(C)CC6)CC5)cc4OC)nc4[nH]ccc34)cc2C1=O	12 nM	20 mL/min/kg	7.5 nM	2 µM (≈ 1.46 µg/mL)	> 5 µM
CCc1cccc(CC)c1NC(=O)c1cc(-c2nc(Nc3ccc(N4CCC(N5CCN(C)CC5)CC4)cc3OC)nc3[nH]ccc23)n(C)n1	17 nM	15 mL/min/kg	6 nM	18 µM (≈ 12.2 µg/mL)	> 5 µM
